Activity data for 1 compound are collected here from ChEMBL document CHEMBL4334471, “Discovery of 1,8-disubstituted-[1,2,3]triazolo[4,5-c]quinoline derivatives as a new class of Hippo signaling pathway inhibitors” (Bioorg Med Chem Lett, 2019).

For assay [1], the target named is Activin receptor type-1 (Homo sapiens) (UniProt Q04771). As to the kind of experiment: Inhibition of human ALK2 (147 to end residues) assessed as residual activity at 10 uM using casein as substrate incubated for 40 mins in presence of [gamma-33ATP] by scintillation counting based radiometry assay relative to control.
Activin receptor type-1 (Homo sapiens), sequence (Q04771 whole entry): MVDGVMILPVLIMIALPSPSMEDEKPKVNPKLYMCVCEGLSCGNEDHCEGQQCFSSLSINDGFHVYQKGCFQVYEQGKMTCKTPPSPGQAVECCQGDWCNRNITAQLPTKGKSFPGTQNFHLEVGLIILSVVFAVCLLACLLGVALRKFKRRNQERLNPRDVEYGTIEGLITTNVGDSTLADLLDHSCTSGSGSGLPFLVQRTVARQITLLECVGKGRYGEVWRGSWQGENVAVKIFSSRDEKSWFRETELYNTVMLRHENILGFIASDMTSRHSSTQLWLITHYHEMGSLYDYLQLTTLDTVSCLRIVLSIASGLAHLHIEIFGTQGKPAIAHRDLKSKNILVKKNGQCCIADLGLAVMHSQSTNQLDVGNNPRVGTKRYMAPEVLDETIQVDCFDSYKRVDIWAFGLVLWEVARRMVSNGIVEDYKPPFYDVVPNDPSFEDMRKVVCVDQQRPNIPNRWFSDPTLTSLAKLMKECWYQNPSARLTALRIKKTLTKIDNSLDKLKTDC
Assay [2] concerns the target CDK7/Cyclin H/MNAT1 (Homo sapiens) (UniProt P51946+P50613+P51948). As to the kind of experiment: Inhibition of recombinant full length human CDK7/cyclinH/MAT1 assessed as residual activity at 10 uM using peptide as substrate incubated for 40 mins in presence of [gamma-33ATP] by scintillation counting based radiometry assay relative to control. Type of assay: protein-complex assay.

In assay [3] the target is Tyrosine-protein kinase CSK (Homo sapiens) (UniProt P41240). As to the kind of experiment: Inhibition of recombinant human CSK assessed as residual activity at 10 uM poly(Glu, Tyr) 4:1 as substrate incubated 40 mins in presence of [gamma-33ATP] by scintillation counting based radiometry assay relative to control.
Tyrosine-protein kinase CSK (Homo sapiens), sequence (P41240 2-450 limits assumed): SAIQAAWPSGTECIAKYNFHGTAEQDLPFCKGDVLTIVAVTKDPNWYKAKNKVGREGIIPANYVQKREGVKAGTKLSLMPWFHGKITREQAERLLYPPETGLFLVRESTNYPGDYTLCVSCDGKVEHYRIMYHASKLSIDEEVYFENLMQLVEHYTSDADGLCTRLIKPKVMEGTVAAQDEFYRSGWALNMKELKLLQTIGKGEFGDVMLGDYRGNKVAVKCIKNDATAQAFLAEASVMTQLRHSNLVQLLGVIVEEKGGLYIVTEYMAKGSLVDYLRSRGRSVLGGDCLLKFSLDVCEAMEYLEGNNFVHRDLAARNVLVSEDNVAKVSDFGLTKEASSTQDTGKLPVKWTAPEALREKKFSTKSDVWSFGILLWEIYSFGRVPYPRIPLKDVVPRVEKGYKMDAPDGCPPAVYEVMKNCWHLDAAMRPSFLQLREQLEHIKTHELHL
Assay [4] concerns the target Dual specificity tyrosine-phosphorylation-regulated kinase 1A (Homo sapiens) (UniProt Q13627). Nature of the assay: Inhibition of recombinant human DYRK1A assessed as residual activity at 10 uM using RRRFRPASPLRGPP as substrate at 40 mins in presence of [gamma-33ATP] by scintillation counting based radiometry assay relative to control.
Assay [5] deals with Dual specificity tyrosine-phosphorylation-regulated kinase 1B (Homo sapiens) (UniProt Q9Y463). As to the kind of experiment: Inhibition of recombinant human DYRK1B assessed as residual activity at 10 uM using RRRFRPASPLRGPP as substrate at 40 mins in presence of [gamma-33ATP] by scintillation counting based radiometry assay relative to control.
Dual specificity tyrosine-phosphorylation-regulated kinase 1B (Homo sapiens), sequence (Q9Y463 whole entry, looked up): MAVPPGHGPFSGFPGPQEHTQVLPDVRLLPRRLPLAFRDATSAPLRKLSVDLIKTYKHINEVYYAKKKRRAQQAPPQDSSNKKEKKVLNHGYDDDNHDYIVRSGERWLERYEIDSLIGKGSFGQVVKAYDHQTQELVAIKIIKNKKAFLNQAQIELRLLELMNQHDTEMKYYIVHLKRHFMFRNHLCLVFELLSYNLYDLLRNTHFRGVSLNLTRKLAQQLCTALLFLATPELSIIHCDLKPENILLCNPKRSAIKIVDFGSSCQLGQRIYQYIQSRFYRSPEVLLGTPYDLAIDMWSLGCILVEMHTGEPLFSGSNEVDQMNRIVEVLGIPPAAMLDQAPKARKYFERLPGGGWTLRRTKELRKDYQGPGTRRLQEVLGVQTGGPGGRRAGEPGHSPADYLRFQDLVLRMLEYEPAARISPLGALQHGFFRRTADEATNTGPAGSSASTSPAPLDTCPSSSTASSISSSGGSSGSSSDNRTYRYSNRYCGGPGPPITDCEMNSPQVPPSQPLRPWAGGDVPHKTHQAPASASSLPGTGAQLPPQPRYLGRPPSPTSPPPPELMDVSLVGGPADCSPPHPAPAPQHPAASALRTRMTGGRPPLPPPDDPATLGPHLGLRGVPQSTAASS
For assay [6], the target named is Tyrosine-protein kinase Fer (Homo sapiens) (UniProt P16591). As to the kind of experiment: Inhibition of recombinant human FER (541 to end residues) assessed as residual activity at 10 uM using KKKSPGEYVNIEF as substrate at 40 mins in presence of [gamma-33ATP] by scintillation counting based radiometry assay relative to control.
Assay [7] has as its target Vascular endothelial growth factor receptor 1 (Homo sapiens) (UniProt P17948). As to the kind of experiment: Inhibition of recombinant human FLT1 (783 to end residues) assessed as residual activity at 10 uM using KKKSPGEYVNIEF as substrate at 40 mins in presence of [gamma-33ATP] by scintillation counting based radiometry assay relative to control.
Assay [8] concerns the target Eukaryotic translation initiation factor 2-alpha kinase 1 (Homo sapiens) (UniProt Q9BQI3). As to the kind of experiment: Inhibition of human HRI (140 to end residues) assessed as residual activity at 10 uM using RSRSRSRSRSRSR as substrate after 120 mins by [gamma-33ATP] radiometric assay relative to control.
Assay [9] addresses Interleukin-1 receptor-associated kinase 1 (Homo sapiens) (UniProt P51617). As to the kind of experiment: Inhibition of human IRAK1 (194 to end residues) assessed as residual activity at 10 uM using myelin basic protein as substrate after 40 mins by [gamma-33ATP] radiometric assay relative to control.
For assay [10], the target named is Tyrosine-protein kinase Lyn (Homo sapiens) (UniProt P07948). Nature of the assay: Inhibition of recombinant human Lyn assessed as residual activity at 10 uM using poly(Glu, Tyr) 4:1 as substrate after 40 mins in presence of [gamma-33ATP] by scintillation counting based radiometry assay relative to control.
Assay [11] addresses Leucine-rich repeat serine/threonine-protein kinase 2 (Homo sapiens) (UniProt Q5S007). Nature of the assay: Inhibition of recombinant human LRRK2 (970 to end residues) assessed as residual activity at 10 uM using RLGRDKYKTLRQI as substrate after 40 mins in presence of [gamma-33ATP] by scintillation counting based radiometry assay relative to control.
Assay [12] deals with Hepatocyte growth factor receptor (Homo sapiens), P08581 [D1228H]. As to the kind of experiment: Inhibition of recombinant human MET A1209G/V1290L/D1246H mutant (974 to end residues) assessed as residual activity at 10 uM using KKKGQEEEYVFIE as substrate incubated for 40 mins in presence of [gamma-33ATP by scintillation counting based radiometry assay relative to control.
Assay [13] addresses Ribosomal protein S6 kinase alpha-4 (Homo sapiens) (UniProt O75676). Nature of the assay: Inhibition of recombinant human MSK2 (2 to end residues) assessed as residual activity at 10 uM using GRPRTSSFAEGKK as substrate incubated for 40 mins in presence of [gamma-33ATP by scintillation counting based radiometry assay relative to control.
The target in assay [14] is Serine/threonine-protein kinase Nek3 (Homo sapiens) (UniProt P51956). As to the kind of experiment: Inhibition of recombinant full-length human NEK3 assessed as residual activity at 10 uM using myelin basic protein as substrate measured after 40 mins in presence of [gamma33P]ATP by scintillation counting based radiometry assay relative to control.
The target of assay [15] is PAS domain-containing serine/threonine-protein kinase (Homo sapiens) (UniProt Q96RG2). As to the kind of experiment: Inhibition of recombinant human PASK (995 to end residues) assessed as residual activity at 10 uM using KKLNRTLSFAEPG as substrate measured after 40 mins in presence of [gamma33P]ATP by scintillation counting based radiometry assay relative to control.
PAS domain-containing serine/threonine-protein kinase (Homo sapiens), sequence (Q96RG2 whole entry, the tested form may be a part): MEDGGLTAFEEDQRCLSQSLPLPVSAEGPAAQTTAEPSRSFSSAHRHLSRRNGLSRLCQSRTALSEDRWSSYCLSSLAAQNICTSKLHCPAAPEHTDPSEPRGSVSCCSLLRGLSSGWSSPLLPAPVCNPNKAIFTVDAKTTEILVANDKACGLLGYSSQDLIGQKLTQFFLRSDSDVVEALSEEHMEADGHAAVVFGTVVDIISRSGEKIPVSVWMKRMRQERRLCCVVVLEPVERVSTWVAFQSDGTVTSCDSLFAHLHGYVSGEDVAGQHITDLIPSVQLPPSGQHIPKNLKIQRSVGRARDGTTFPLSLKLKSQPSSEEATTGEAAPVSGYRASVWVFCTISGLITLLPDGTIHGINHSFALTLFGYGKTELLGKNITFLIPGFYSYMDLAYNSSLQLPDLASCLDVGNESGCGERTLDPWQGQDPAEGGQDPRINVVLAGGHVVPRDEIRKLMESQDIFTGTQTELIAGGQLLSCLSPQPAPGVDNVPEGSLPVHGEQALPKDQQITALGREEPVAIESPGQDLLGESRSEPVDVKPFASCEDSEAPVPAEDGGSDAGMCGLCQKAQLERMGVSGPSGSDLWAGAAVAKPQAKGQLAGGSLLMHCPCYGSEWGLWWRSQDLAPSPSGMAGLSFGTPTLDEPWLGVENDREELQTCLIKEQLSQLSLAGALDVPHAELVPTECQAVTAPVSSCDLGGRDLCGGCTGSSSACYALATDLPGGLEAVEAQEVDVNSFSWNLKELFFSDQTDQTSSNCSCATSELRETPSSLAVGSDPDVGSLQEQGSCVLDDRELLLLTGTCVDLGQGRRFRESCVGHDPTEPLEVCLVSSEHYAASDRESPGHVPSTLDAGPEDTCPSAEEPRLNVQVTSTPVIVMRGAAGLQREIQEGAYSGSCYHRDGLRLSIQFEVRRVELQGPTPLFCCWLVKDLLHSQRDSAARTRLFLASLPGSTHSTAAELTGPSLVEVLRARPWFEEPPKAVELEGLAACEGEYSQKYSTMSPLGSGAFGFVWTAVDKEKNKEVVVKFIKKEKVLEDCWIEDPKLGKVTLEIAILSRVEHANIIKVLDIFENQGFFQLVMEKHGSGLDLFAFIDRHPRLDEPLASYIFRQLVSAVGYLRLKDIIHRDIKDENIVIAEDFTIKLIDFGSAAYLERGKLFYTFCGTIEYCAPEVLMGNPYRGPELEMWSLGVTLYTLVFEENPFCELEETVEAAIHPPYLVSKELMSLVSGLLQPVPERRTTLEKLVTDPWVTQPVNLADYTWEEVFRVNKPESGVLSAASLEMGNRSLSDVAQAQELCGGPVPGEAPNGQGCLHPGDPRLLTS

Assay [16] is filed under the species Homo sapiens. As to the kind of experiment: Inhibition of recombinant full length human PKBalpha S478G mutant assessed as residual activity at 10 uM using GRPRTSSFAEGKK as substrate incubated for 40 mins in presence of [gamma33P]ATP by scintillation counting based radiometry assay relative to control.
In assay [17] the target is Mitogen-activated protein kinase 13 (Homo sapiens) (UniProt O15264). As to the kind of experiment: Inhibition of recombinant human full length SAPK4 assessed as residual activity at 10 uM using myelin basic protein as substrate incubated for 40 mins in presence of [gamma33P]ATP by scintillation counting based radiometry assay relative to control.
Mitogen-activated protein kinase 13 (Homo sapiens), sequence (O15264 whole entry): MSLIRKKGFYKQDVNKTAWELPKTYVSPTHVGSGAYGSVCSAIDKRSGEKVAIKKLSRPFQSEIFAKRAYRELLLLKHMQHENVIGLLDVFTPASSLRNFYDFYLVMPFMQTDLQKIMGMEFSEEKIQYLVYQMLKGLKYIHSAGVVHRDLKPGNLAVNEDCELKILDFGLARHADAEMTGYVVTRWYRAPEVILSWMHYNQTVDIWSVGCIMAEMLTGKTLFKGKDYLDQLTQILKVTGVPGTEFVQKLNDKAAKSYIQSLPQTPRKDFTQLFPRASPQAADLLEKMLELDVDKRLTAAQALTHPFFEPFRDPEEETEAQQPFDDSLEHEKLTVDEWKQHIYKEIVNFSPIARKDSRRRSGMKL
Assay [18] addresses Serine/threonine-protein kinase 32C (Homo sapiens) (UniProt Q86UX6). As to the kind of experiment: Inhibition of recombinant human full length STK32C assessed as residual activity at 10 uM using casein as substrate incubated for 40 mins in presence of [gamma33P]ATP by scintillation counting based radiometry assay relative to control.
Assay [19] deals with Dual specificity protein kinase TTK (Homo sapiens), P33981 [S389A]. As to the kind of experiment: Inhibition of recombinant full-length human TTK S389A mutant assessed as residual activity at 10 uM using MBP as substrate incubated for 40 mins in presence of [gamma33P]ATP by scintillation counting based radiometry assay relative to control.
The species named for assay [20] is Homo sapiens. As to the kind of experiment: Inhibition of recombinant human full length PI3K p110/p85 assessed as residual activity at 10 uM using phosphatidylinositol-4, 5-bisphosphate as substrate measured after 40 mins by fluorescence assay relative to control.
For assay [21], the target named is Phosphatidylinositol 4-phosphate 3-kinase C2 domain-containing subunit alpha (Homo sapiens) (UniProt O00443). Nature of the assay: Inhibition of recombinant human PI3KC2alpha (299 to end residues) assessed as residual activity at 10 uM using phosphatidylinositol as substrate incubated for 40 mins in presence of [gamma33P]ATP by scintillation counting based radiometry assay relative to control.

Interleukin-1 receptor-associated kinase 1 (Homo sapiens), sequence (P51617 whole entry, looked up): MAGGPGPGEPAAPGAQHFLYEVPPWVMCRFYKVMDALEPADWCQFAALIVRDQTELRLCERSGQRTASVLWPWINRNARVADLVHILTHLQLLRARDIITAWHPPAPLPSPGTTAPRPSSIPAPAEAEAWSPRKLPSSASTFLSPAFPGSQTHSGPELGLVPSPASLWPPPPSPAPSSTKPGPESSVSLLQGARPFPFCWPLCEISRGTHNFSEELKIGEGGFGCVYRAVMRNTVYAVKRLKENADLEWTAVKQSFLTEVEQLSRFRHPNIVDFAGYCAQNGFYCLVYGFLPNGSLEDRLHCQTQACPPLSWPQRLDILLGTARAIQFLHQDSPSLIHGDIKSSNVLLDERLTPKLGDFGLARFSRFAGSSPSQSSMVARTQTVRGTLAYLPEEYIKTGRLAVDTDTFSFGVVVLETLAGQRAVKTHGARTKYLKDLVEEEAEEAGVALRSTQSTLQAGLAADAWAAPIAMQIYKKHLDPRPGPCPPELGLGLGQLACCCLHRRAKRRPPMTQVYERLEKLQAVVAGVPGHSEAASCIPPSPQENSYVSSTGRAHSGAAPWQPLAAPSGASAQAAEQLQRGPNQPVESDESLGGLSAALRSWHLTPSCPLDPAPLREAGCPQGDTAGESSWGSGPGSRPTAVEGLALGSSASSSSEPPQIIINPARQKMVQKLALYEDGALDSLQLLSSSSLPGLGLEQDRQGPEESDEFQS
Eukaryotic translation initiation factor 2-alpha kinase 1 (Homo sapiens), sequence (Q9BQI3 whole entry): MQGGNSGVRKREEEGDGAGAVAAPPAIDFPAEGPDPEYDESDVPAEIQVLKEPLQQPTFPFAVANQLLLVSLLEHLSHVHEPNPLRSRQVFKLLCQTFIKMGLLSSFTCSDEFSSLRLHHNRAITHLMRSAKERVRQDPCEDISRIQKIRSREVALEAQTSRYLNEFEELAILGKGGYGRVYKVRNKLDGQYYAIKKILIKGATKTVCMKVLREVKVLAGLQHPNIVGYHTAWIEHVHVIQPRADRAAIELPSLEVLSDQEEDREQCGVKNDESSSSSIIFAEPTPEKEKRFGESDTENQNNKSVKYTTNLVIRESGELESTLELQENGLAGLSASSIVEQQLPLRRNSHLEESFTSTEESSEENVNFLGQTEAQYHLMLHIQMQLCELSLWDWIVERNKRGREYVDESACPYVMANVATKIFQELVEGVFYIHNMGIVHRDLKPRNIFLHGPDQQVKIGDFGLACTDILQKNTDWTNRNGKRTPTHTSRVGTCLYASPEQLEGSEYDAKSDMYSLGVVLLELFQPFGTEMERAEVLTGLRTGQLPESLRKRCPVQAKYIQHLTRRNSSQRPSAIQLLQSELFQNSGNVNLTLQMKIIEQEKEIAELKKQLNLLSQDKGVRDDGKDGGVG

On to `C[C@@H](c1ccccc1)n1nnc2cnc3ccc(-c4cnc5[nH]ccc5c4)cc3c21`, for which the Activity worked out at 88% in assay [1]; 80% in assay [2]; 74% in assay [3]; 63% in assay [4]; 83% in [5]; 83% in assay [6]. Besides, the Activity was determined as 49% in assay [7]; 91% in [8]; 84% in [9]; 3% in assay [10]; 11% in [11]; 72% in assay [12]. Besides, the Activity was 58% in assay [13]; 73% in [14]; 30% in assay [15]; 80% in [16]; 97% in assay [17]; 91% in assay [18]. Also, the Activity was 2% in [19], 3 to 9% in assay [20] and -60 to 66% in assay [21].
